Data reported in US20170049843A1, “Hepatocyte Growth Factor Mimics as Therapeutic Agents” (WASHINGTON STATE UNIVERSITY, priority 2011, published 2017).
“Also recorded” adds a separate entry of the source. Like-named read-outs stand apart in the source and are kept apart here. Where a SMILES comes first, the peptide text is derived from it. [ ]: non-standard residue; d: D form. The star is where a group is joined. Hexanoyl = CCCCCC(=O)*; Ahx = NCCCCCC(=O)O

Columns and labels:
[1] = tested on: aged rats; test: Morris water maze, aged rat model; format: in vivo; settings: oral 2 mg/kg/day, 8 days, vs untreated
Method: FIG. 37. Dihexa improves spatial learning in aged rats. Group latencies to find the submerged platform in the Morris water maze task of spatial memory are shown. Five minutes before beginning testing 24 month old mixed sex (3 male and 3 female/group) Sprague Dawley rats were administered […] (2 mg/kg) orally by gavage (suspension in isotonic NaCl), on a daily basis. There were 5 trials per day for 8 days. The latency to find the pedestal was considered a measure of learning and memory. […] Swim speed was determined from these values.

[2] = tested on: MDCK cells; test: Augmentation of HGF-dependent cell scattering in MDCK cells; format: cell-based, canine
Method: HGF mimetic activity was typically assessed by one or both of two methods: augmentation of HGF-dependent c-Met phosphorylation in HEK293 cells, or 2) augmentation of HGF-dependent cell scattering in MDCK cells. All the compounds in Family one were tested using the c-Met phosphorylation assay. […]
MDCK cells were grown to 100% confluency on the coverslips in six-well plates and washed twice with PBS. The confluent coverslips were then aseptically transferred to new six well plates containing 900 μl serum free DMEM. Norleual, Hinge peptide, and/or HGF (2.5 ng/ml) were added to appropriate wells. Control wells received PBS vehicle. Plates were incubated at 37° C. with 5% CO2 for 48 hours. Media was removed and cells were fixed with methanol. Cells were stained with Diff-Quik Wright-Giemsa (Dade-Behring, Newark, Del.) and digital images were taken. Coverslips were removed with forceps and more digital images were captured. Pixel quantification of images was achieved using Image J and statistics were performed using Prism 5 and InStat v.3.05.

[3] = tested on: hippocampal neurons; test: Protection of hippocampal neurons from growth factor deprivation; format: cell-based; settings: starved 72 hrs, +/− HGF sub-threshold
Method: FIG. 46. […] Dissociated hippocampal neurons were starved for 72 hrs+/−HGF at sub-threshold concentrations […] and or Dihexa at 2 different concentrations 10^−8M and 10^−8M. (**p<0.001.*** p<0.000I; Mean+/−SEM).

Compound: CCCCCC(=O)N[C@@H](Cc1ccc(O)cc1)C(=O)N[C@H](C(=O)NCCCCCC(N)=O)[C@@H](C)CC [Dihexa, N-hexanoic-Tyr-Ile-(6)-aminohexanoic amide] (Hexanoyl-Tyr-Ile-[Ahx]-NH2)
- water maze performance (latency) of aged rats [1]: preformed significantly better in the water maze than untreated rats; also recorded: performed significantly better than untreated controls; also recorded: significantly different than that of the non-treated rats
- augmentation of HGF-dependent MDCK cell scattering [2]: stimulate MDCK cell scattering
- augmentation of HGF-dependent MDCK cell scattering ([2]; listed as N-hexanoyl-Tyr-Ile-(6) aminohexamide): spectacularly augment HGF-dependent MDCK cell scattering
- protection of neurons from growth factor deprivation [3]: protects neurons from growth factor deprivation
